Our source for the LC retention time values is the RepoRT retention time repository.

The nature of the data set: HILIC, Waters Atlantis Premier BEH Z-HILIC, 100 × 2.1 mm, 1.7 µm, 40 °C, 0.15 mL/min, estimated dead time 1.5 min; A: water + 20 mM ammonium carbonate + 5 µM medronic acid; B: 10% water + 90% acetonitrile + 2 mM ammonium carbonate + 0.5 µM medronic acid; gradient (min/%B) 0/100 18/60 18.1/20 21.5/20 22/100 23.5/100 25.5/100. The note with it: stereoisomer not certain.

Turning to `O=C(O)CCC(=O)C(=O)O` [2-Oxoglutaric acid], the LC retention time is 8.86 min.

Regarding `O=C(O)CCC(O)C(=O)O` (configuration not stated) [2-hydroxy glutaric acid], the LC retention time was 8.86 min.

Regarding `Nc1ncnc2c1ncn2C1OC(COP(=O)(O)OP(=O)(O)O)C(O)C1O` (configuration not stated) [ADP], the LC retention time is 11.6 min.

For the compound `Nc1ncnc2c1ncn2C1OC(COP(=O)(O)O)C(O)C1O` (configuration not stated) [AMP], the LC retention time is 9.42 min.

For the compound `Nc1ncnc2c1ncn2C1OC(COP(=O)(O)OP(=O)(O)OP(=O)(O)O)C(O)C1O` (configuration not stated) [ATP], the LC retention time is 13.6 min.

For the compound `CC(=O)SCCNC(=O)CCNC(=O)C(O)C(C)(C)COP(=O)(O)OP(=O)(O)OCC1OC(n2cnc3c(N)ncnc32)C(O)C1OP(=O)(O)O` (configuration not stated) [Acetyl-CoA], the LC retention time is 9.69 min.

Consider `Nc1ncnc2c1ncn2C1OC(CO)C(O)C1O` (configuration not stated) [Adenosine], for which the LC retention time was 3.63 min.

For the compound `O=C(O)CCCCC1SCC2NC(=O)NC21` (configuration not stated) [Biotin], the LC retention time is 4.67 min.

Regarding `C[N+](C)(C)CC(O)CC(=O)[O-]` (configuration not stated) [Carnitine], the LC retention time is 10.1 min.

Take `O=C(O)CC(O)(CC(=O)O)C(=O)O` [Citric acid]: the LC retention time is 14.3 min.

Take `CC(C)(COP(=O)(O)OP(=O)(O)OCC1OC(n2cnc3c(N)ncnc32)C(O)C1OP(=O)(O)O)C(O)C(=O)NCCC(=O)NCCS` (configuration not stated) [CoenzymeA]: the LC retention time was 11.4 min.

Turning to `Cc1cc2nc3c(=O)[nH]c(=O)nc-3n(CC(O)C(O)C(O)COP(=O)(O)OP(=O)(O)OCC3OC(n4cnc5c(N)ncnc54)C(O)C3O)c2cc1C` (configuration not stated) [FAD], the LC retention time is 7.67 min.

Regarding `O=C(CO)C(O)C(O)C(O)COP(=O)(O)O` (configuration not stated) [Fructose 6-phosphate], the LC retention time was 11.3 min.

For the compound `O=P(O)(O)OCC1OC(O)C(O)C(O)C1O` (configuration not stated) [Glucose-6-phosphate], the LC retention time was 12.3 min.

As for `NC(CCC(=O)O)C(=O)O` (configuration not stated) [Glutamic acid], the LC retention time is 9.81 min.

Consider `NC(=O)CCC(N)C(=O)O` (configuration not stated) [Glutamine], for which the LC retention time is 9.87 min.

As for `O=P(O)(O)OCC(O)CO` (configuration not stated) [Glycerol-3-phosphate], the LC retention time is 10.4 min.

Turning to `OCC1OC(O)C(O)C(O)C1O` (configuration not stated) [Hexose], the LC retention time was 6.98 min.

As for `O=C(O)CC(C(=O)O)C(O)C(=O)O` (configuration not stated) [Isocitric acid], the LC retention time is 14 min.

With `CCC(C)C(N)C(=O)O` (configuration not stated) [Isoleucine], the LC retention time was 6.4 min.

Consider `CC(O)C(=O)O` (configuration not stated) [Lactic Acid], for which the LC retention time was 3.35 min.

As to `CC(C)CC(N)C(=O)O` (configuration not stated) [Leucine], the LC retention time is 6.46 min.

Turning to `NC(=O)C1=CN(C2OC(COP(=O)(O)OP(=O)(O)OCC3OC(n4cnc5c(N)ncnc54)C(O)C3O)C(O)C2O)C=CC1` (configuration not stated) [NADH], the LC retention time was 8.31 min.

As to `NC(=O)c1ccc[n+](C2OC(COP(=O)(O)OP(=O)(O)OCC3OC(n4cnc5c(N)ncnc54)C(OP(=O)(O)O)C3O)C(O)C2O)c1` (configuration not stated) [NADP], the LC retention time was 13.4 min.

As to `NC(=O)c1ccc[n+](C2OC(COP(=O)(O)OP(=O)(O)OCC3OC(n4cnc5c(N)ncnc54)C(O)C3O)C(O)C2O)c1` (configuration not stated) [NAD], the LC retention time is 9.95 min.

On to `C=C(OP(=O)(O)O)C(=O)O` [PEP], for which the LC retention time is 13.1 min.

With `O=C(O)C(CO)OP(=O)(O)O` (configuration not stated) [Phosphoglyceric acid A], the LC retention time was 12.8 min.

Turning to `O=C(O)CCC(=O)O` [Succinic Acid], the LC retention time was 8.9 min.

On to `O=C(CO)COP(=O)(O)O` [Triose phosphate], for which the LC retention time is 10.4 min.

Take `CC(=O)NC1C(OP(=O)(O)OP(=O)(O)OCC2OC(n3ccc(=O)[nH]c3=O)C(O)C2O)OC(CO)C(O)C1O` (configuration not stated) [UDP-GlcNAc]: the LC retention time was 9.95 min.

On to `CCC(=O)OC(CC(=O)[O-])C[N+](C)(C)C` (configuration not stated) [carnitine-C3], for which the LC retention time is 6.46 min.

As to `O=C1CC(C(=O)O)NC(=O)N1` (configuration not stated) [dihydroorotic acid], the LC retention time was 4.08 min.
